Experimental data reported in patent publication US11884676B2, “Substituted pyrimido[1,2-b]pyridazines as positive allosteric modulators of the muscarinic acetylcholine receptor M4” (Vanderbilt University, priority 2020, dated 2024).
pEC50: −log10 of the molar value.

Molecular target: T1, Human M4 (Homo sapiens, UniProt P08173)
T1 construct: expressed in transfected cells
T1 sequence (P08173 1-479): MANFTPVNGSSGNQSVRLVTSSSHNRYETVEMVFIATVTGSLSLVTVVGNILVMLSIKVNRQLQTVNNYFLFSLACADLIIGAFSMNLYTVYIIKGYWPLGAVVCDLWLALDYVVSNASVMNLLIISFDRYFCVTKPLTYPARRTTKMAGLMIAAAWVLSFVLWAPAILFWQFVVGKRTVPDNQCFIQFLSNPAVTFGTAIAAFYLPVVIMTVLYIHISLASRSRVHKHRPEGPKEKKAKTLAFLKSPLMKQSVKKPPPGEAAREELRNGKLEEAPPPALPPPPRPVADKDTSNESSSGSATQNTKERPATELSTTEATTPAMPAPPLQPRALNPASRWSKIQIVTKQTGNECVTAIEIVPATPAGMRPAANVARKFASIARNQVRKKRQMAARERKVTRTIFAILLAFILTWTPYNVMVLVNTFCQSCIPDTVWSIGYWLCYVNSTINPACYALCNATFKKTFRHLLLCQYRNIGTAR
Experiment: mAChR M4 cell-based functional assay (calcium flux, PAM mode)
Conditions: hM4-Gqi5 CHO-K1 cells; for Emax at 30 µM: CHO-K1, % ACh maximum at 30 μM; for pEC50: concentration-dependent increase in the EC20 acetylcholine response
Method: Human and rat M4 cDNAs, along with the chimeric G protein Gqi5, were transfected into Chinese hamster ovary (CHO-K1) cells purchased from the American Type Culture Collection using Lipofectamine2000. hM4-Gqi5 cells were grown in Ham's F-12 medium containing 10% heat-inactivated fetal bovine serum (FBS), 20 mM HEPES, 50 μg/mL G418 sulfate, and 500 μg/mL Hygromycin B. rM4-Gqi5 cells were grown in DMEM containing 10% heat-inactivated FBS, 20 mM HEPES, 400 μg/mL G418 sulfate, and 500 μg/mL Hygromycin B.
For high throughput measurement of agonist-evoked increases in intracellular calcium, CHO-K1 cells stably expressing muscarinic receptors were plated in growth medium lacking G418 and hygromycin at 15,000 cells/20 μL/well in Greiner 384-well black-walled, tissue culture (TC)-treated, clear-bottom plates (VWR). Cells were incubated overnight at 37° C. and 5% CO2. The next day, cells were washed using an ELX 405 (BioTek) with assay buffer; the final volume was then aspirated to 20 μL. Next, 20 μL of a 2.3 μM stock of Fluo-4/acetoxymethyl ester (Invitrogen, Carlsbad, CA), prepared as a 2.3 mM stock in DMSO and mixed in a 1:1 ratio with 10% (w/v) Pluronic F-127 and diluted in assay buffer, was added to the wells and the cell plates were incubated for 50 min at 37° C. and 5% CO2. Dye was removed by washing with the ELX 405 and the final volume was aspirated to 20 μL. Compound master plates were formatted in an 11 point concentration-response curve (CRC) format (1:3 dilutions) in 100% DMSO with a starting concentration of 10 mM using a BRAVO liquid handler (Agilent). Test compound CRCs were then transferred to daughter plates (240 nL) using the Echo acoustic plate reformatter (Labcyte, Sunnyvale, CA) and then diluted into assay buffer (40 μL) to a 2× stock using a Thermo Fisher Combi (Thermo Fisher Scientific, Waltham, MA).
Calcium flux was measured using the Functional Drug Screening System (FDSS) 6000 or 7000 (Hamamatsu Corporation, Tokyo, Japan) as an increase in the fluorescent static ratio. Compounds were applied to cells (20 μL, 2×) using the automated system of the FDSS at 2-4 seconds into the protocol and the data were collected at 1 Hz. At 144 seconds, 10 μL of an EC20 concentration of the muscarinic receptor agonist acetylcholine was added (5×), followed by the addition of 12 μL of an EC80 concentration of acetylcholine at the 230 second time point (5×). Agonist activity was analyzed as a concentration-dependent increase in calcium mobilization upon compound addition. Positive allosteric modulator activity was analyzed as a concentration-dependent increase in the EC20 acetylcholine response. Antagonist activity was analyzed as a concentration-dependent decrease in the EC80 acetylcholine response. Concentration-response curves were generated using a four-parameter logistical equation in XLFit curve fitting software (IDBS, Bridgewater, NJ) for Excel (Microsoft, Redmond, WA) or Prism (GraphPad Software, Inc., San Diego, CA).
Compounds were synthesized as described above. Activity (EC50 and Emax) was determined in the mAChR M4 cell-based functional assay as described above and the data are shown in Table 2. The compound number corresponds to the compound numbers used in Examples 1 to 11 and Tables 1.

SMILES	Emax at 30 µM [%]	pEC50
Cc1cc2nccc(=O)n2nc1N1CC[C@@H](Oc2ccc3c(c2)OCCO3)[C@@H](C)C1 (single isomer, unassigned) [Compound 113, 7-((3R,4S) or (3S,4R))-4-(2,3-dihydrobenzo[b][1,4]dioxin-6-yl)oxy)-3-methylpiperidin-1-yl)-8-methyl-4H-pyrimido[1,2-b]pyridazin-4-one]	96	6.96
Cc1cc2nccc(=O)n2nc1N1CC[C@@H](Oc2ccc3c(c2)OCCO3)[C@H](C)C1 (single isomer, unassigned) [Compound 114, 7-((3R,4R) or (3S,4S))-4-((2,3-dihydrobenzo[b][1,4]dioxin-6-yl)oxy)-3-methylpiperidin-1-yl)-8-methyl-4H-pyrimido[1,2-b]pyridazin-4-one]	102	6.80
Cc1cc2nccc(=O)n2nc1N1CC[C@H](Oc2ccc3c(c2)OCCO3)[C@@H](C)C1 (single isomer, unassigned) [Compound 115, 7-((3S,4S) or (3R, 4R))-4-((2,3-dihydrobenzo[b][1,4]dioxin-6-yl)oxy)-3-methylpiperidin-1-yl)-8-methyl-4H-pyrimido[1,2-b]pyridazin-4-one]	78	5.81
Cc1cc2nccc(=O)n2nc1N1CC[C@@H](Oc2ccc3c(c2)OCCO3)C[C@H]1C (stereo in doubt) [Compound 106, 7-((2R,4R)-4-((2,3-dihydrobenzo[b][1,4]dioxin-6-yl)oxy)-2-methylpiperidin-1-yl)-8-methyl-4H-pyrimido[1,2-b]pyridazin-4-one]	81	6.09
Cc1cc2nccc(=O)n2nc1N1CC[C@H](Oc2ccc3c(c2)OCCO3)C[C@H]1C (stereo in doubt) [Compound 107, 7-((2R,4S)-4-((2,3-dihydrobenzo[b][1,4]dioxin-6-yl)oxy)-2-methylpiperidin-1-yl)-8-methyl-4H-pyrimido[1,2-b]pyridazin-4-one]	55	–
[2H]C1([2H])Oc2ccc(OC3CCN(c4nn5c(=O)ccnc5cc4C)CC3)cc2OC1([2H])[2H] [Compound 1, 7-(4-((2,3-Dihydrobenzo[b][1,4]dioxin-6-yl-2,2,3,3-d4)oxy)piperidin-1-yl)-8-methyl-4H-pyrimido[1,2-b]pyridazin-4-one]	91	6.89
[2H]C1([2H])Oc2ccc(OC3CCN(c4nn5c(=O)cc(C(F)(F)F)nc5c(C)c4C)CC3)cc2OC1([2H])[2H] [Compound 7, 7-(4-((2,3-Dihydrobenzo[b][1,4]dioxin-6-yl-2,2,3,3-d4)oxy)piperidin-1-yl)-8,9-dimethyl-2-(trifluoromethyl)-4H-pyrimido[1,2-b]pyridazin-4-one]	93	7.15
[2H]C1([2H])Oc2ccc(OC3CCN(c4nn5c(=O)cc(C6CC6)nc5cc4C)CC3)cc2OC1([2H])[2H] [Compound 10, 2-Cyclopropyl-7-(4-((2,3-dihydrobenzo[b][1,4]dioxin-6-yl-2,2,3,3-d4)oxy)piperidin-1-yl)-8-methyl-4H-pyrimido[1,2-b]pyridazin-4-one]	73	7.06
Cc1c(N2CCC(Oc3ccc4c(c3)OCCO4)CC2)nn2c(=O)cc(C(C)C)nc2c1C [Compound 12, 7-(4-((2,3-Dihydrobenzo[b][1,4]dioxin-6-yl)oxy)piperidin-1-yl)-2-isopropyl-8,9-dimethyl-4H-pyrimido[1,2-b]pyridazin-4-one]	103	7.23

Continued by rising pEC50, values first:

Emax at 30 µM [%]	pEC50	SMILES
99	7.31	CCc1cc(=O)n2nc(N3CCC(Oc4ccc5c(c4)OCCO5)CC3)c(C)c(C)c2n1 [Compound 11, 7-(4-((2,3-Dihydrobenzo[b][1,4]dioxin-6-yl-2,2,3,3-d4)oxy)piperidin-1-yl)-2-ethyl-8,9-dimethyl-4H-pyrimido[1,2-b]pyridazin-4-one]
90	7.44	[2H]C1([2H])Oc2ccc(OC3CCN(c4nn5c(=O)c(C)c(C)nc5cc4C)CC3)cc2OC1([2H])[2H] [Compound 4, 7-(4-((2,3-Dihydrobenzo[b][1,4]dioxin-6-yl-2,2,3,3-d4)oxy)piperidin-1-yl)-2,3,8-trimethyl-4H-pyrimido[1,2-b]pyridazin-4-one]
81	7.44	[2H]C1([2H])Oc2ccc(OC3CCN(c4nn5c(=O)cc(C)nc5c(C)c4C)CC3)cc2OC1([2H])[2H] [Compound 5, 7-(4-((2,3-Dihydrobenzo[b][1,4]dioxin-6-yl-2,2,3,3-d4)oxy)piperidin-1-yl)-2,8,9-trimethyl-4H-pyrimido[1,2-b]pyridazin-4-one]
86	7.52	[2H]C1([2H])Oc2ccc(OC3CCN(c4nn5c(=O)cc(C)nc5cc4C)CC3)cc2OC1([2H])[2H] [Compound 3, 7-(4-((2,3-Dihydrobenzo[b][1,4]dioxin-6-yl-2,2,3,3-d4)oxy)piperidin-1-yl)-2,8-dimethyl-4H-pyrimido[1,2-b]pyridazin-4-one]
96	7.55	[2H]C1([2H])Oc2ccc(OC3CCN(c4nn5c(=O)cc(C(F)F)nc5c(C)c4C)CC3)cc2OC1([2H])[2H] [Compound 9, 2-(Difluoromethyl)-7-(4-((2,3-dihydrobenzo[b][1,4]dioxin-6-yl-2,2,3,3-d4)oxy)piperidin-1-yl)-8,9-dimethyl-4H-pyrimido[1,2-b]pyridazin-4-one]
100	7.59	[2H]C1([2H])Oc2ccc(OC3CCN(c4nn5c(=O)ccnc5c(C)c4C)CC3)cc2OC1([2H])[2H] [Compound 2, 7-(4-((2,3-Dihydrobenzo[b][1,4]dioxin-6-yl-2,2,3,3-d4)oxy)piperidin-1-yl)-8,9-dimethyl-4H-pyrimido[1,2-b]pyridazin-4-one]
95	7.66	COCc1cc(=O)n2nc(N3CCC(Oc4ccc5c(c4)OCCO5)CC3)c(C)c(C)c2n1 [Compound 13, 7-(4-((2,3-Dihydrobenzo[b][1,4]dioxin-6-yl)oxy)piperidin-1-yl)-2-(methoxymethyl)-8,9-dimethyl-4H-pyrimido[1,2-b]pyridazin-4-one]
101	7.66	[2H]C1([2H])Oc2ccc(OC3CCN(c4nn5c(=O)cc(COC)nc5cc4C)CC3)cc2OC1([2H])[2H] [Compound 14, 7-(4-((2,3-Dihydrobenzo[b][1,4]dioxin-6-yl-2,2,3,3-d4)oxy)piperidin-1-yl)-2-(methoxymethyl)-8-methyl-4H-pyrimido[1,2-b]pyridazin-4-one]
76	7.72	[2H]C1([2H])Oc2ccc(OC3CCN(c4nn5c(=O)cc(C(F)F)nc5cc4C)CC3)cc2OC1([2H])[2H] [Compound 8, 2-(Difluoromethyl)-7-(4-((2,3-dihydrobenzo[b][1,4]dioxin-6-yl-2,2,3,3-d4)oxy)piperidin-1-yl)-8-methyl-4H-pyrimido[1,2-b]pyridazin-4-one]
91	7.80	[2H]C1([2H])Oc2ccc(OC3CCN(c4nn5c(=O)cc(C(F)(F)F)nc5cc4C)CC3)cc2OC1([2H])[2H] [Compound 6, 7-(4-((2,3-Dihydrobenzo[b][1,4]dioxin-6-yl-2,2,3,3-d4)oxy)piperidin-1-yl)-8-methyl-2-(trifluoromethyl)-4H-pyrimido[1,2-b]pyridazin-4-one]
